Source: patent publication US20230158025A1 (UNIVERSITY OF UTAH RESEARCH FOUNDATION, priority 2020, published 2023)
Where two headings read alike, the source gives them in different places.

Legend:
[1] = aqueous kinetic solubility
[2] = rat microsomal stability (RLM)
recombinant human GALK1 = recombinant human GALK1 (Homo sapiens, UniProt P51570); assay: hGALK1 biochemical activity assay (Kinase-Glo Plus, ATP depletion)
In short: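 Recombinant human or mouse GALK1 (5 nM, with 100 μM galactose, in the added enzyme solution) was run with ATP (35 μM in the substrate solution) in HEPES pH 8.0 buffer. Compounds were tested at 11 1/3-step concentrations from 57.4 μM to 0.97 nM. After 1 h at room temperature, remaining ATP was read by Kinase-Glo Plus luminescence.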

recombinant mouse GALK1 = recombinant mouse GALK1 (Mus musculus, UniProt Q9R0N0); assay: mGALK1 biochemical activity assay (Kinase-Glo Plus, ATP depletion)
In short: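 Recombinant GALK1 (5 nM) with 100 μM galactose; GALK1 turnover read as ATP depletion by Kinase-Glo Plus luminescence. Reaction ran 1 h at room temperature before detection reagent was added.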

[3] = Tables 2-15, 35 μM ATP, 100 μM galactose, 1 h, bracketed figure after some values (e.g. −1.2) is undefined and not reported, read-out: hGALK IC50
[4] = recombinant human GALK1, Kinase-Glo Plus ATP depletion, read-out: hGALK
[5] = Tables 2-15, 35 μM ATP, 100 μM galactose, 1 h, bracketed figure after some values is undefined and not reported, read-out: mGALK IC50
[6] = recombinant mouse GALK1, Kinase-Glo Plus ATP depletion, read-out: mGALK
[7] = microsomal stability half-life, minutes
[8] = recombinant human GALK1, Kinase-Glo Plus ATP depletion, bracketed figure in the cell, e.g. (−1.2), is not defined in the text shown, read-out: hGALK
[9] = recombinant mouse GALK1, Kinase-Glo Plus ATP depletion, bracketed figure in the cell, e.g. (−1.2), is not defined in the text shown, read-out: mGALK

Sequence of recombinant mouse GALK1 (Q9R0N0 whole entry): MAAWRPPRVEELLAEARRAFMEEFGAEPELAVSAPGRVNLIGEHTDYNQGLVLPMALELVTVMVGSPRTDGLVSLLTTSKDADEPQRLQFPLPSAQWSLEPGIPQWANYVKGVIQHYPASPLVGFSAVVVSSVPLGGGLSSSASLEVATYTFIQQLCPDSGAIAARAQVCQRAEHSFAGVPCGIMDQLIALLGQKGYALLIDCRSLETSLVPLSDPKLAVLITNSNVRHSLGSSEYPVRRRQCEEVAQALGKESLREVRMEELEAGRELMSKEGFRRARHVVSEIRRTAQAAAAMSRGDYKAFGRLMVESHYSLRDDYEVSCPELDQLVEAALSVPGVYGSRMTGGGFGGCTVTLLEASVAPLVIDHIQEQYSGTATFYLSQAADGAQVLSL
Sequence of recombinant human GALK1 (P51570 whole entry): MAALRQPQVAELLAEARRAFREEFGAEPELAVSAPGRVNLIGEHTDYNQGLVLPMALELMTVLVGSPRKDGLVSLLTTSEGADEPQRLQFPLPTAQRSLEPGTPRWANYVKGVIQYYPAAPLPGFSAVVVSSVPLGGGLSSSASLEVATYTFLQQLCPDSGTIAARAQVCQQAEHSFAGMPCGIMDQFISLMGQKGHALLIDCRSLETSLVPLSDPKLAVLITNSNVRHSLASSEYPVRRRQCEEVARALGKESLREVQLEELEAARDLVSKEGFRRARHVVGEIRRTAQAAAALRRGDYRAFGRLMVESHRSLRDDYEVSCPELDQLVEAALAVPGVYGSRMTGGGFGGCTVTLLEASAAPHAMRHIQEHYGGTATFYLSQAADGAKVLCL

SMILES | Sol. [1] | Metab. Stabil. (m) ([2]; microsomal half-life) | IC50 (recombinant human GALK1; [3]) | IC50 (recombinant human GALK1; [4]) | Perm. (1 × 10^−6 cm/sec) (PAMPA permeability) | IC50 (recombinant mouse GALK1; [5]) | IC50 (recombinant mouse GALK1; [6]) | Sol. ([1]; aqueous kinetic solubility) | Metab. Stabil. (m) ([2]; microsomal stability half-life) | Perm. (1 × 10^−6 cm/sec) (PAMPA permeability; PAMPA) | hGALK IC50 (recombinant human GALK1; Tables 2-15, 35 μM ATP, 100 μM galactose, 1 h, bracketed figure after some values (e.g. −1.2) is undefined and not reported) | hGALK (μM) (recombinant human GALK1; recombinant human GALK1, Kinase-Glo Plus ATP depletion) | Metab. Stabil. (m) [2, 7] | IC50 (recombinant human GALK1; [8]) | IC50 (recombinant mouse GALK1; [9])
CC1=C(C(=O)Nc2cc(C(=O)O)ccn2)C(c2ccc(C#N)cc2Cl)N=C(Nc2nc3ccc(F)cc3o2)N1 (stereo not drawn) [Compound 66, 2-(4-(2-chloro-4-cyanophenyl)-2-((6-fluorobenzo[d]oxazol-2-yl)amino)-6-methyl-1,4-dihydropyrimidine-5-carboxamido)isonicotinic acid] | >81 µg/mL | >30 m | 0.61 µM | 0.61 µM | <1 1 × 10^−6 cm/sec | 3.85 µM | 3.85 µM | – | – | – | – | – | – | – | –
COC(=O)c1cccc(CNC(=O)C2=C(C)NC(Nc3nc4ccccc4o3)=NC2c2ccccc2Cl)c1 (stereo not drawn) [Compound 224, methyl 3-((2-(benzo[d]oxazol-2-ylamino)-4-(2-chlorophenyl)-6-methyl-1,4-dihydropyrimidine-5-carboxamido)methyl)benzoate] | – | – | 4.85 µM | 4.85 µM | – | 7.69 µM | 7.69 µM | <1 µg/mL | 3.416 m | 615.7 1 × 10^−6 cm/sec | – | – | – | – | –
CC1=C(C(=O)Nc2ccc(Cl)cc2)C(c2ccccc2Cl)N=C(Nc2nc3ccccc3o2)N1 (stereo not drawn) [Compound 141, 2-(benzo[d]oxazol-2-ylamino)-4-(2-chlorophenyl)-N-(4-chlorophenyl)-6-methyl-1,4-dihydropyrimidine-5-carboxamide] | – | – | – | – | – | 7.69 µM | 7.69 µM | <1 µg/mL | >30 m | 2.0 1 × 10^−6 cm/sec | inactive | in- active | – | – | –
CC1=C(C(=O)NCc2ccc(CO)cc2)C(c2ccccc2Cl)N=C(Nc2nc3ccccc3o2)N1 (stereo not drawn) [Compound 228, 2-(benzo[d]oxazol-2-ylamino)-4-(2-chlorophenyl)-N-(4-(hydroxymethyl)benzyl)-6-methyl-1,4-dihydropyrimidine-5-carboxamide] | – | – | 6.85 µM | – | – | 15.3 µM | 15.3 µM | <1 µg/mL | 13.8241 m | 867.3 1 × 10^−6 cm/sec | – | – | – | – | –
CC1=C(C(=O)Nc2ccccn2)C(c2ccccc2Cl)N=C(Nc2nc3cccc(N)c3o2)N1 (stereo not drawn) [Compound 81, 2-((7-aminobenzo[d]oxazol-2-yl)amino)-4-(2-chlorophenyl)-6-methyl-N-(pyridin-2-yl)-1,4-dihydropyrimidine-5-carboxamide] | <1 µg/mL | >30 m | – | 3.43 µM | 271.13 1 × 10^−6 cm/sec | – | 19.3 µM | – | – | – | – | – | – | – | –
O=C(O)CNC(=O)C1CC(=O)C2=C(C1)NC(Nc1nc3ccccc3o1)=NC2c1ccccc1Cl (stereo not drawn) [Compound 283, (2-(benzo[d]oxazol-2-ylamino)-4-(2-chlorophenyl)-5-oxo-1,4,5,6,7,8-hexahydroquinazoline-7-carbonyl)glycine] | – | – | – | – | – | – | – | 58.23 µg/mL | – | <1 1 × 10^−6 cm/sec | – | – | >30 m | 3.43 µM | 4.85 µM
CC1=C(C(=O)Nc2nnc(C(F)(F)F)s2)C(c2ccccc2Cl)N=C(Nc2nc3ccccc3o2)N1 (stereo not drawn) [Compound 167, 2-(benzo[d]oxazol-2-ylamino)-4-(2-chlorophenyl)-6-methyl-N-(5-(trifluoromethyl)-1,3,4-thiadiazol-2-yl)-1,4-dihydropyrimidine-5-carboxamide] | – | – | 12.2 µM | 12.2 µM | – | 21.7 µM | 21.7 µM | <1 µg/mL | >30 m | 12.6 1 × 10^−6 cm/sec | – | – | – | – | –
CC1=C(C(=O)Nc2nncs2)C2(CCSCC2)N=C(Nc2nc3ccccc3o2)N1 [Compound 271, 2-(benzo[d]oxazol-2-ylamino)-4-methyl-N-(1,3,4-thiadiazol-2-yl)-9-thia-1,3-diazaspiro[5.5]undeca-1,4-diene-5-carboxamide] | – | – | – | – | – | – | – | 3.5 µg/mL | – | 417.5 1 × 10^−6 cm/sec | – | – | >30 m | 8.63 µM | 24.3 µM
CCn1cc(CNC(=O)C2=C(C)NC(Nc3nc4ccc(F)c(N)c4o3)=N[C@@H]2c2ccc(C)cc2Cl)cn1 [Compound 134, (S)-2-((7-amino-6-fluorobenzo[d]oxazol-2-yl)amino)-4-(2-chloro-4-methylphenyl)-N-((1-ethyl-1H-pyrazol-4-yl)methyl)-6-methyl-1,4-dihydropyrimidine-5-carboxamide] | – | – | – | 1.53 µM | – | – | 10.9 µM | <1 µg/mL | 8.619 m | 772.8 1 × 10^−6 cm/sec | – | – | – | – | –
CC1=C(C(=O)Nc2cc(C(=O)O)ccn2)C(c2ccc(Br)cc2Cl)N=C(Nc2nc3ccc(F)cc3o2)N1 (stereo not drawn) [Compound 62, 2-(4-(4-bromo-2-chlorophenyl)-2-((6-fluorobenzo[d]oxazol-2-yl)amino)-6-methyl-1,4-dihydropyrimidine-5-carboxamido)isonicotinic acid] | 2.4 µg/mL | >30 m | 1.09 µM | 1.09 µM | <1.7 1 × 10^−6 cm/sec | 3.85 µM | 3.85 µM | – | – | – | – | – | – | – | –
COC(=O)c1ccccc1CNC(=O)C1=C(C)NC(Nc2nc3ccccc3o2)=NC1c1ccccc1Cl (stereo not drawn) [Compound 222, methyl 2-((2-(benzo[d]oxazol-2-ylamino)-4-(2-chlorophenyl)-6-methyl-1,4-dihydropyrimidine-5-carboxamido)methyl)benzoate] | – | – | 6.85 µM | 6.85 µM | – | 4.32 µM | 4.32 µM | <1 µg/mL | 1.742 m | 462.5 1 × 10^−6 cm/sec | – | – | – | – | –
CC1=C(C(=O)NCc2ccccn2)C(c2ccccc2Cl)N=C(Nc2nc3ccccc3o2)N1 (stereo not drawn) [Compound 220, 2-(benzo[d]oxazol-2-ylamino)-4-(2-chlorophenyl)-6-methyl-N-(pyridin-2-ylmethyl)-1,4-dihydropyrimidine-5-carboxamide] | – | – | 8.63 µM | 8.63 µM | – | – | 19.3 µM | 1.8 µg/mL | 6.557 m | 1424.0 1 × 10^−6 cm/sec | – | – | – | – | –
CC1=C(C(=O)NCc2cnn(C(C)(C)C)c2)C(c2ccc(C)cc2Cl)N=C(Nc2nc3ccc(F)c(N)c3o2)N1 (stereo not drawn) [Compound 132, 2-((7-amino-6-fluorobenzo[d]oxazol-2-yl)amino)-N-((1-(tert-butyl)-1H-pyrazol-4-yl)methyl)-4-(2-chloro-4-methylphenyl)-6-methyl-1,4-dihydropyrimidine-5-carboxamide] | – | – | 0.77 µM | 0.77 µM | – | 4.32 µM | 4.32 µM | <1 µg/mL | 14.41 m | 553.2 1 × 10^−6 cm/sec | – | – | – | – | –
CNC(=O)C1CC(=O)C2=C(C1)NC(Nc1nc3ccccc3o1)=NC2c1ccccc1Cl (stereo not drawn) [Compound 278, 2-(benzo[d]oxazol-2-ylamino)-4-(2-chlorophenyl)-N-methyl-5-oxo-1,4,5,6,7,8-hexahydroquinazoline-7-carboxamide] | – | – | – | – | – | – | – | <1 µg/mL | – | 430.36 1 × 10^−6 cm/sec | – | – | >30 m | 6.11 µM | 6.85 µM
CCOc1ccc(C2N=C(Nc3nc4ccc(F)cc4o3)NC(C)=C2C(=O)Nc2cc(C(=O)O)ccn2)c(Cl)c1 (stereo not drawn) [Compound 67, 2-(4-(2-chloro-4-ethoxyphenyl)-2-((6-fluorobenzo[d]oxazol-2-yl)amino)-6-methyl-1,4-dihydropyrimidine-5-carboxamido)isonicotinic acid] | 11.3 µg/mL | >30 m | 0.69 µM | 0.69 µM | <1 1 × 10^−6 cm/sec | 3.85 µM | 3.85 µM | – | – | – | – | – | – | – | –
